Data taken from US12686873B2, “Plants having increased tolerance to herbicides” (priority 2012, dated 2026).
“And” between values parts separate entries of the source, which are not always exact repeats. Equal entries are not always repeated.

Columns and labels:
Soy = test: Tolerance rates for soybean (injury score 0-9); settings: Soy
[1] = tested on: transgenic T1 Arabidopsis plants; test: Transgenic T1 Arabidopsis greenhouse tolerance study (injury rating); settings: SEQ_ID 2 & 4, L397D, F420V
[2] = tested on: Chlamydomonas reinhardtii strains; test: Selection and dose-response of Chlamydomonas reinhardtii strains

In the case of `C#CCN1C(=O)C(F)(F)Oc2cc(F)c(-n3c(=O)n(C)c(=S)n(C)c3=O)cc21`, the injury score (Soy; 1,5-dimethyl-6-thioxo-3-(...)-1,3,5-triazinane-2,4-dione 12.5 g ai/ha, amino acid substitution F420L, SEQ ID NO 2) is reported as 2 and 1, the injury score (Soy; 1,5-dimethyl-6-thioxo-3-(...)-1,3,5-triazinane-2,4-dione 12.5 g ai/ha, amino acid substitution L369D, F392V, SEQ ID NO 40) is reported as 8 and 5 and 7 and 6 and 4 and the injury score (Soy; 1,5-dimethyl-6-thioxo-3-(...)-1,3,5-triazinane-2,4-dione 12.5 g ai/ha, amino acid substitution L397D, F420V, SEQ ID NO 2) is reported as 2. For the same molecule, the injury score (Soy; 1,5-dimethyl-6-thioxo-3-(...)-1,3,5-triazinane-2,4-dione 12.5 g ai/ha, amino acid substitution L397E, SEQ ID NO 2) was 5 and 7 and 6 and 4 and 8, the injury score (Soy; 1,5-dimethyl-6-thioxo-3-(...)-1,3,5-triazinane-2,4-dione 12.5 g ai/ha, amino acid substitution L397Q, SEQ ID NO 2) was 7 and the injury score (Soy; 1,5-dimethyl-6-thioxo-3-(...)-1,3,5-triazinane-2,4-dione 12.5 g ai/ha, amino acid substitution none, SEQ ID NO 2) was 3 and 7 and 6 and 5. For the same molecule, the injury score (Soy; 1,5-dimethyl-6-thioxo-3-(...)-1,3,5-triazinane-2,4-dione 12.5 g ai/ha, amino acid substitution none, SEQ ID NO 40) was 8 and 6 and 7 and 9, the injury score (Soy; 1,5-dimethyl-6-thioxo-3-(...)-1,3,5-triazinane-2,4-dione 25 g ai/ha, amino acid substitution F420L, SEQ ID NO 2) was 9 and 1 and 3 and 4 and 5 and the injury score (Soy; 1,5-dimethyl-6-thioxo-3-(...)-1,3,5-triazinane-2,4-dione 25 g ai/ha, amino acid substitution F420M, SEQ ID NO 2) was 4 and 1 and 5 and 8. For the same molecule, the injury score (Soy; 1,5-dimethyl-6-thioxo-3-(...)-1,3,5-triazinane-2,4-dione 25 g ai/ha, amino acid substitution L369D, F392V, SEQ ID NO 40) was 9 and 8 and 6 and 7 and 4, the injury score (Soy; 1,5-dimethyl-6-thioxo-3-(...)-1,3,5-triazinane-2,4-dione 25 g ai/ha, amino acid substitution L397D, F420V, SEQ ID NO 2) was 5 and the injury score (Soy; 1,5-dimethyl-6-thioxo-3-(...)-1,3,5-triazinane-2,4-dione 25 g ai/ha, amino acid substitution L397D, SEQ ID NO 2) was 8 and 4 and 5. The injury score (Soy; 1,5-dimethyl-6-thioxo-3-(...)-1,3,5-triazinane-2,4-dione 25 g ai/ha, amino acid substitution L397E, F420M, SEQ ID NO 2) was 2 and 1 and 0, the injury score (Soy; 1,5-dimethyl-6-thioxo-3-(...)-1,3,5-triazinane-2,4-dione 25 g ai/ha, amino acid substitution L397E, SEQ ID NO 2) was 5 and 8 and 6 and 7 and the injury score (Soy; 1,5-dimethyl-6-thioxo-3-(...)-1,3,5-triazinane-2,4-dione 25 g ai/ha, amino acid substitution L397Q, F420M, SEQ ID NO 2) was 3 and 7 and 2 and 0 and 6. For the same molecule, the injury score (Soy; 1,5-dimethyl-6-thioxo-3-(...)-1,3,5-triazinane-2,4-dione 25 g ai/ha, amino acid substitution L397Q, F420V, SEQ ID NO 2) was 4 and 6, the injury score (Soy; 1,5-dimethyl-6-thioxo-3-(...)-1,3,5-triazinane-2,4-dione 25 g ai/ha, amino acid substitution L397Q, SEQ ID NO 2) was 9 and the injury score (Soy; 1,5-dimethyl-6-thioxo-3-(...)-1,3,5-triazinane-2,4-dione 25 g ai/ha, amino acid substitution none, SEQ ID NO 2) was 5 and 7 and 6 and 8. The injury score (Soy; 1,5-dimethyl-6-thioxo-3-(...)-1,3,5-triazinane-2,4-dione 25 g ai/ha, amino acid substitution none, SEQ ID NO 40) was 9 and 6 and 7 and 8, the injury score (Soy; 1,5-dimethyl-6-thioxo-3-(...)-1,3,5-triazinane-2,4-dione 50 g ai/ha, amino acid substitution F420L, SEQ ID NO 2) was 6 and the injury score (Soy; 1,5-dimethyl-6-thioxo-3-(...)-1,3,5-triazinane-2,4-dione 50 g ai/ha, amino acid substitution F420M, SEQ ID NO 2) was 3 and 4 and 2 and 5 and 9. For the same molecule, the injury score (Soy; 1,5-dimethyl-6-thioxo-3-(...)-1,3,5-triazinane-2,4-dione 50 g ai/ha, amino acid substitution L369D, F392V, SEQ ID NO 40) was 8 and 7, the injury score (Soy; 1,5-dimethyl-6-thioxo-3-(...)-1,3,5-triazinane-2,4-dione 50 g ai/ha, amino acid substitution L397D, F420V, SEQ ID NO 2) was 4 and the injury score (Soy; 1,5-dimethyl-6-thioxo-3-(...)-1,3,5-triazinane-2,4-dione 50 g ai/ha, amino acid substitution L397D, SEQ ID NO 2) was 9 and 5 and 8 and 4 and 6. The injury score (Soy; 1,5-dimethyl-6-thioxo-3-(...)-1,3,5-triazinane-2,4-dione 50 g ai/ha, amino acid substitution L397E, F420M, SEQ ID NO 2) was 2 and 1, the injury score (Soy; 1,5-dimethyl-6-thioxo-3-(...)-1,3,5-triazinane-2,4-dione 50 g ai/ha, amino acid substitution L397Q, F420M, SEQ ID NO 2) was 2 and 7 and 3 and 4 and 6 and 5 and 1 and the injury score (Soy; 1,5-dimethyl-6-thioxo-3-(...)-1,3,5-triazinane-2,4-dione 50 g ai/ha, amino acid substitution L397Q, F420V, SEQ ID NO 2) was 5 and 7. For the same molecule, the injury score (Soy; 1,5-dimethyl-6-thioxo-3-(...)-1,3,5-triazinane-2,4-dione 75 g ai/ha, amino acid substitution L397E, F420M, SEQ ID NO 2) was 2 and 3 and 1, the injury score (Soy; 1,5-dimethyl-6-thioxo-3-(...)-1,3,5-triazinane-2,4-dione 75 g ai/ha, amino acid substitution L397Q, F420M, SEQ ID NO 2) was 3 and 7 and 8 and 4 and 5 and 6 and 2 and the injury score (Soy; 1,5-dimethyl-6-thioxo-3-(...)-1,3,5-triazinane-2,4-dione 75 g ai/ha, amino acid substitution L397Q, F420V, SEQ ID NO 2) was 5 and 7. The “Injury Rating 0-100% (0 = no injury, 100 = total control)” value ([1]; 75 g/Ha + 1% MSO, 7 DAT, Line 1) was 98%, the “Injury Rating 0-100% (0 = no injury, 100 = total control)” value ([1]; 75 g/Ha + 1% MSO, 7 DAT, Line 2) was 100% and the “Injury Rating 0-100% (0 = no injury, 100 = total control)” value ([1]; 75 g/Ha + 1% MSO, 7 DAT, Line 3) was 80%. For the same molecule, the “Injury Rating 0-100% (0 = no injury, 100 = total control)” value ([1]; 75 g/Ha + 1% MSO, 19 DAT, Line 1) was 95%, the “Injury Rating 0-100% (0 = no injury, 100 = total control)” value ([1]; 75 g/Ha + 1% MSO, 19 DAT, Line 2) was 100% and the “Injury Rating 0-100% (0 = no injury, 100 = total control)” value ([1]; 75 g/Ha + 1% MSO, 19 DAT, Line 3) was 95%. For the same molecule, the “Injury Rating 0-100% (0 = no injury, 100 = total control)” value ([1]; 150 g/Ha + 1% MSO, 7 DAT, Line 1) was 30%, the “Injury Rating 0-100% (0 = no injury, 100 = total control)” value ([1]; 150 g/Ha + 1% MSO, 7 DAT, Line 2) was 98% and the “Injury Rating 0-100% (0 = no injury, 100 = total control)” value ([1]; 150 g/Ha + 1% MSO, 7 DAT, Line 3) was 98%. The “Injury Rating 0-100% (0 = no injury, 100 = total control)” value ([1]; 150 g/Ha + 1% MSO, 19 DAT, Line 1) was 65%, the “Injury Rating 0-100% (0 = no injury, 100 = total control)” value ([1]; 150 g/Ha + 1% MSO, 19 DAT, Line 2) was 100% and the “Injury Rating 0-100% (0 = no injury, 100 = total control)” value ([1]; 150 g/Ha + 1% MSO, 19 DAT, Line 3) was 100%. For the same molecule, the “Injury Rating 0-100% (0 = no injury, 100 = total control)” value ([1]; 300 g/Ha + 1% MSO, 7 DAT, Line 1) was 100%, the “Injury Rating 0-100% (0 = no injury, 100 = total control)” value ([1]; 300 g/Ha + 1% MSO, 7 DAT, Line 2) was 30% and the “Injury Rating 0-100% (0 = no injury, 100 = total control)” value ([1]; 300 g/Ha + 1% MSO, 7 DAT, Line 3) was 35%. The “Injury Rating 0-100% (0 = no injury, 100 = total control)” value ([1]; 300 g/Ha + 1% MSO, 19 DAT, Line 1) was 98%, the “Injury Rating 0-100% (0 = no injury, 100 = total control)” value ([1]; 300 g/Ha + 1% MSO, 19 DAT, Line 2) was 60% and the “Injury Rating 0-100% (0 = no injury, 100 = total control)” value ([1]; 300 g/Ha + 1% MSO, 19 DAT, Line 3) was 80%. The “growth of mutagenized cells plated on solid medium containing the herbicide” value ([2]; 1×10^−7 M in solid medium, FIG. 2B) was “susceptible cells do not grow” and the “IC50 of mutagenized cells (strain 17) compared to Wild-type cells” value ([2]; dose-response curve, FIG. 3B versus FIG. 3A) was “much lower IC50”.
